Results from paper PMC8773529 (Cancers, 2022).

Experiments:
Format in all cases: cell-based, human
[1] = system: LNCaP cells; experiment: MTT assay, LNCaP; details: for IC50: 72 h, MTT, mean ± SD; for SI LNCaP: SI = IC50 normal cell line (RWPE-1)/IC50 cancer cell line
Description: (§1) MTT analysis was performed as described previously.
(§2) Cell absorbance results were substituted into the formula for the relative MTT level (%). It allows to calculate the viability of cells exposed to the test compounds. Cell viability is the percentage of MTT reduction in cells to which the test compounds were added compared to the control sample, where only the medium was added to the cells.
(§3) The relative MTT level was calculated using the formula: life time [100%] = A/B × 100% where: A—the test sample absorbance; B—the control sample absorbance.
(§4) The statistical analysis was performed using the Statistica 13.0 (StatSoft, Inc, Tulsa, OK, USA) program. Comparison between studied groups was performed by the paired Student’s t-test. Results were expressed as means ± SD, and considered statistically significant at p < 0.05. All data were calculated from 3 separate experiments. IC50 values were calculated using GraphPad Prism 6 software (GraphPad Software, San Diego, CA, USA).

[2] = system: DU-145 cells; experiment: MTT assay, DU-145; details: for IC50: MTT, 72 h, mean ± SD; for SI DU-145: SI = IC50 normal cell line (RWPE-1)/IC50 cancer cell line
Description: as §1, §2, §3, §4

[3] = system: RWPE-1 cells; experiment: MTT assay, normal RWPE-1; details: mean ± SD
Description: as §1, §2, §3, §4

[4] = system: LNCaP cells; experiment: LDH test, LNCaP; details: 72 h; tested at 10-60 µM, concentration of quoted value not stated
Description: (§5) Lactate dehydrogenase (LDH) as a cytosolic enzyme determined in culture medium is a marker of cell death. The LDH activity determination was performed after 72 h incubation of cells (1 × 10^4 cells per well) in 96-well plates with the selected conjugates of gradually decreasing concentration according to the procedure mentioned at earlier study by Chrzanowska et al.. The cytotoxicity of test compounds was expressed as % of LDH released from test cells. This parameter is calculated using the formula: cytotoxicity = [A test sample − A “low control”]/[A “high control” − A “low control”] where: A—absorbance, “Low control”—cells in DMEM medium with 2% FBS, “High control”—cells in DMEM with 2% FBS with 1% Triton X-100.

[5] = system: DU145 cells; experiment: LDH test, DU145; details: 72 h; tested at 10-60 µM, concentration of quoted value not stated
Description: as §5

[6] = system: RWPE-1 cells; experiment: Apoptosis detection (Annexin V/7-AAD flow cytometry), RWPE-1; details: IC50 concentration, 72 h, % of cells
Description: (§6) Then, a commercially available kit (FITC:Annexin V Apoptosis Detection Kit I; BD Biosciences Pharmingen. San Jose, CA, USA) was used. The medium was removed from the plates and approximately 1 mL of PBS was added to the wells for rinsing, followed by 0.7 mL of trypsin, and left for 3 min. Then, the plate wells were washed twice with 0.5 mL PBS with 2% FBS and next the entire content of the given walls was transferred to test tubes. The tubes were centrifuged for 7 min in a centrifuge at 1700 rpm. The supernatant solution was removed. […] After this time, 0.4 mL of PBS with FBS was added to the tubes and mixed again. […] Annexin V-reactive cells, but not 7-AAD-reactive cells were in the early stage of apoptosis, while cells reactive with both reagents were in late-stage apoptosis or were dead.

[7] = system: LNCaP cells; experiment: Apoptosis detection (Annexin V/7-AAD flow cytometry), LNCaP; details: IC50 concentration, 72 h, % of cells
Description: as §6

[8] = system: DU-145 cells; experiment: Apoptosis detection (Annexin V/7-AAD flow cytometry), DU-145; details: IC50 concentration, 72 h, % of cells
Description: as §6

[9] = system: IL-6 release by LNCaP cells; experiment: Interleukin-6 ELISA, LNCaP; details: IC50 concentration, 72 h; control 40.1 pg/mL
Description: (§7) The sandwich ELISA assay is used to confirm the presence of interleukin 6 (IL-6) in the test cell line supernatant. Interleukin IL-6 ELISA kit was purchased from Diaclone SAS (Besancon Cedex, France). […] Before starting the test, a standard curve was prepared. An amount of 100 μL of test supernatant samples from the RWPE-1, LNCaP and DU145 cell lines incubated with the tested compounds, control solutions and blank were added to the plate’s wells. Then, 50 µL of diluted biotinylated anti-human interleukin-6 antibody was added to each well. The prepared plate was incubated at room temperature for one hour. At the end of this time, the solution in the plate wells was decanted and rinsed with the washing solution. After repeating the procedure three times, 100 μL solution of streptavidin covalently bound to horseradish peroxidase (HRP) was added to the wells. Then, the plates were incubated for 30 min. The next step was to remove the solution and rinse the plates three times. After adding 100 μL of tetramethylbenzidine (TMB) solution to each well, the plates were incubated for 15 min in the dark. In order to stop the reaction, 100 μL of H2SO4 solution were added. The absorbance of the tested samples was read using a spectrophotometer at 450 nm (Microplate Spectrophotometer Thermo Scientific™ Multiskan™ GO).

[10] = system: IL-6 release by DU145 cells; experiment: Interleukin-6 ELISA, DU145; details: IC50 concentration, 72 h; control 134.475 pg/mL
Description: as §7

[11] = system: PC3 cells; experiment: MTT assay, PC3; details: SI = IC50 normal cell line (RWPE-1)/IC50 cancer cell line
Description: as §1, §2, §3, §4

| SMILES | IC50 ([1]; Homo sapiens, LNCaP) [nM] | IC50 [1] [nM] | IC50 ([2]; Homo sapiens, DU-145, 72 h) [nM] | IC50 [2] [nM] | IC50 ([3]; Homo sapiens, RWPE-1, 72 h) [nM] | released lactate dehydrogenase, LNCaP [4] | released lactate dehydrogenase, DU145 [5] | Early Apoptosis (%), RWPE-1 [6] [%] | Late apoptosis (%), RWPE-1 [6] [%] | Early Apoptosis (%), LNCaP [7] [%] | Late apoptosis (%), LNCaP [7] | Late apoptosis (%), LNCaP ([7]; listed as CP) [%] | Early Apoptosis (%), DU145 [8] [%] | Late apoptosis (%), DU145 [8] [%] | IL-6 concentration, LNCaP [9] [pg/mL] | IL-6 concentration, DU145 [10] [pg/mL] | SI LNCaP [1] | SI DU-145 [2] | SI PC3 [11] | IC50 ([3]; 72 h) [nM] |
| --- | --- | --- | --- | --- | --- | --- | --- | --- | --- | --- | --- | --- | --- | --- | --- | --- | --- | --- | --- | --- |
| O=C(O)c1cn(C2CC2)c2cc(N3CCNCC3)c(F)cc2c1=O [Ciprofloxacin] | > 70000 | 71200 ± 3800 | > 70000 | 70500 ± 3600 | 72100 ± 5200 | 18.5–24.6% | 18.5–24.6% | 2.9 | 1.4 | 26.8 | did not affect the late apoptosis | 0.7 | 20.8 | 0.3 | 28.7 | 119.72 | – | – | – | – |
| N.N.[Cl][Pt][Cl] [Cisplatin] | – | 1780 ± 740 | – | 1360 ± 690 | – | – | – | – | – | – | – | – | – | – | – | – | 1.5 | 2 | 1.78 | 2690 ± 1100 |
| COc1cccc2c1C(=O)c1c(O)c3c(c(O)c1C2=O)C[C@@](O)(C(=O)CO)C[C@@H]3O[C@H]1C[C@H](N)[C@H](O)[C@H](C)O1 [Doxorubicin] | 480 ± 210 | – | 590 ± 140 | – | 650 ± 100 | – | – | – | – | – | – | – | – | – | – | – | 1.3 | 1.1 | 2 | – |
